Data published in PubChem BioAssay (NCI).
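All cell lines were grown in 96-well plates and treated with compound for 48 hours. TGI denotes the concentration required for complete inhibition of growth.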

Assays:
Assay in all cases: growth of human tumour cells (NCI), 48 h
K-562 leukemia = test system: K-562 leukemia
HS 578T breast = test system: HS 578T breast
SF-539 CNS = test system: SF-539 CNS
OVCAR-5 ovarian = test system: OVCAR-5 ovarian
TK-10 renal = test system: TK-10 renal
MOLT-4 leukemia = test system: MOLT-4 leukemia
OVCAR-4 ovarian = test system: OVCAR-4 ovarian
LOX IMVI melanoma = test system: LOX IMVI melanoma
HL-60(TB) leukemia = test system: HL-60(TB) leukemia
SNB-75 CNS = test system: SNB-75 CNS
SF-268 CNS = test system: SF-268 CNS
DU-145 prostate = test system: DU-145 prostate
786-0 renal = test system: 786-0 renal
UACC-62 melanoma = test system: UACC-62 melanoma
HT29 colon = test system: HT29 colon
OVCAR-8 ovarian = test system: OVCAR-8 ovarian
NCI/ADR-RES ovarian = test system: NCI/ADR-RES ovarian
SR leukemia = test system: SR leukemia
M14 melanoma = test system: M14 melanoma

| Compound | TGI (K-562 leukemia) | TGI (HS 578T breast) | TGI (SF-539 CNS) | TGI (OVCAR-5 ovarian) | TGI (TK-10 renal) | TGI (MOLT-4 leukemia) | TGI (OVCAR-4 ovarian) | TGI (LOX IMVI melanoma) | TGI (HL-60(TB) leukemia) | TGI (SNB-75 CNS) | TGI (SF-268 CNS) | TGI (DU-145 prostate) | TGI (786-0 renal) | TGI (UACC-62 melanoma) | TGI (HT29 colon) | TGI (OVCAR-8 ovarian) | TGI (NCI/ADR-RES ovarian) | TGI (SR leukemia) | TGI (M14 melanoma) |
| --- | --- | --- | --- | --- | --- | --- | --- | --- | --- | --- | --- | --- | --- | --- | --- | --- | --- | --- | --- |
| CCOC(=O)c1nc2ccccc2nc1NCc1ccc(OC)cc1 | > 100 µM | > 100 µM | > 100 µM | > 100 µM | > 100 µM | > 100 µM | > 100 µM | > 100 µM | > 100 µM | > 100 µM | > 100 µM | > 100 µM | > 100 µM | > 100 µM | > 100 µM | > 100 µM | > 100 µM | > 100 µM | – |
| CCOP(=O)(OCC)C1CC(O)CN1OC(=O)C(C)(C)C (stereo not given) | > 100 µM | > 100 µM | – | > 100 µM | > 100 µM | > 100 µM | > 100 µM | > 100 µM | – | > 100 µM | > 100 µM | > 100 µM | > 100 µM | > 100 µM | > 100 µM | > 100 µM | > 100 µM | > 100 µM | > 100 µM |
| O=C1OCC2(CO1)CC1C=CC2C1 (stereo not given) | > 100 µM | > 100 µM | > 100 µM | > 100 µM | > 100 µM | > 100 µM | > 100 µM | > 100 µM | > 100 µM | – | > 100 µM | > 100 µM | > 100 µM | > 100 µM | > 100 µM | – | > 100 µM | > 100 µM | > 100 µM |
| CCCCCCCC/C=C\CCCCCCC(F)C(=O)O (stereo not given) | > 12.5 µM | > 12.5 µM | > 12.5 µM | > 12.5 µM | > 12.5 µM | > 12.5 µM | > 12.5 µM | > 12.5 µM | > 12.5 µM | > 12.5 µM | > 12.5 µM | > 12.5 µM | > 12.5 µM | – | > 12.5 µM | > 12.5 µM | > 12.5 µM | > 12.5 µM | > 12.5 µM |
| Nc1ncnc2c1ncn2C1C=CC(CP(=O)(O)O)C1 (stereo not given) | – | > 100 µM | > 100 µM | > 100 µM | > 100 µM | > 100 µM | > 100 µM | > 100 µM | – | > 100 µM | > 100 µM | > 100 µM | > 100 µM | > 100 µM | > 100 µM | > 100 µM | > 100 µM | > 100 µM | > 100 µM |
| O=c1[nH]c(-c2cccc(F)c2)nc2ccccc12 | > 100 µM | > 78.5 µM | – | > 100 µM | 58.9 µM | > 100 µM | > 65.9 µM | > 100 µM | > 100 µM | 62.7 µM | > 100 µM | > 100 µM | > 100 µM | > 67.3 µM | > 100 µM | > 93.1 µM | > 100 µM | > 100 µM | > 100 µM |
| NCC#CCNCCCN1CC1 | > 100 µM | > 100 µM | > 100 µM | > 100 µM | > 100 µM | – | > 100 µM | > 100 µM | > 100 µM | – | > 100 µM | > 100 µM | > 100 µM | > 100 µM | > 100 µM | > 100 µM | > 100 µM | > 100 µM | > 100 µM |
| CCCCCC(O)[C@H]1C(=O)C[C@@H](O[Si](C)(C)C(C)(C)C)[C@@H]1/C=C/CCOCc1ccccc1 (stereo not given in full) | > 59.4 µM | 26.4 µM | 29.5 µM | 36.6 µM | 28.5 µM | > 29.7 µM | 34.1 µM | 43 µM | > 100 µM | 32.1 µM | 33.2 µM | 46.4 µM | 26.1 µM | 25.1 µM | 22.5 µM | 28.4 µM | 29.3 µM | > 62.9 µM | 34.5 µM |
| CCc1ccc(Nc2cc(=O)[nH]c(SCc3ccccc3)n2)cc1 | > 100 µM | > 100 µM | > 100 µM | > 100 µM | > 100 µM | > 100 µM | – | > 100 µM | > 100 µM | > 100 µM | > 100 µM | > 100 µM | > 100 µM | > 100 µM | > 100 µM | > 100 µM | > 100 µM | > 100 µM | > 100 µM |
| Cc1ccc(OCC2OC(C#N)C(Oc3ccc(C)cc3)C2Oc2ccc(C)cc2)cc1 (stereo not given) | > 100 µM | > 100 µM | > 100 µM | > 100 µM | – | > 100 µM | > 100 µM | – | > 100 µM | > 100 µM | > 100 µM | > 100 µM | > 100 µM | > 100 µM | > 100 µM | > 100 µM | > 100 µM | > 100 µM | > 100 µM |
| Cn1c(=O)[nH]c2[nH]c3ccccc3c2c1=O | > 100 µM | > 100 µM | > 100 µM | > 100 µM | > 100 µM | > 100 µM | – | > 100 µM | > 100 µM | > 100 µM | > 100 µM | > 100 µM | > 100 µM | > 100 µM | > 100 µM | > 100 µM | > 100 µM | > 100 µM | > 100 µM |
| CCOC(=O)c1sc2nc(SC)nc3c2c1N=CN3c1ccccc1Cl | > 100 µM | 52.3 µM | – | > 100 µM | > 100 µM | > 100 µM | 42.4 µM | > 100 µM | > 100 µM | 36.3 µM | > 100 µM | > 100 µM | 33.6 µM | > 100 µM | > 100 µM | > 100 µM | > 100 µM | 89.9 µM | > 100 µM |
| Cc1cc2c(c(C=Nc3ccc([N+](=O)[O-])cc3)c1)OC1(C=C2)Oc2ccccc2C(=O)N1C (stereo not given) | 91.5 µM | > 100 µM | – | 82.5 µM | 74.2 µM | 35 µM | 64.2 µM | 27.1 µM | > 100 µM | 51.8 µM | 51.2 µM | 54.2 µM | 54.3 µM | 34.9 µM | 36.3 µM | 36.9 µM | 49.1 µM | 55.3 µM | 57.8 µM |
